Results reported in patent US4264492A, “Enkephalin-like compounds in bovine adrenal medulla” (Hoffmann-La Roche Inc., priority 1979, dated 1981).
Values joined by “and” are separate entries in the source; they are usually repeats but may differ in a detail not shown here. Equal values may be shown once.

Columns and labels:
[1] = tested on: mice; test: Analgesic assay, tail flick response after intracerebral ventrical injection; assay type: in vivo; conditions: individual mouse
[2] = tested on: N-terminal directed Met-enkephalin antibody; test: Radioimmunoassay, N-terminal directed antibody; assay type: binding; conditions: fractions from RP-18; 1.3 g wet weight of chromaffin granules isolated from 30 g of adrenal medulla
Method: (§1) Bovine adrenal glands were obtained from a local slaughterhouse and stored on ice until used (2 hrs). The medullas were dissected out and chromaffin granules prepared by the procedure of Smith and Winkler [Biochem. J., 103, & 80 (1967)]. The isolated chromaffin granules or whole adrenal medullas were homogenized (10:1 V/W) in 1 M acetic acid, 20 mM HCl containing 1μg/ml PMSF and pepstatin. The procedures for extraction, Sephadex column elution and trypsin digestion have been described [Lewis, R. V. et al., Proc. Nat'l. Acad. Sci., U.S.A. 75, & 021 (1978)]. The radioreceptor assay employed neuroblastoma x glioma hybrid cells [Gerber, L. D. et al., Brain Res. 1515, 117 (1978)] with ^3 H-Leuenkephalin as the competing ligand. Radioimmunoassays were performed using a C-terminal directed Leu-enkephalin antibody and a N-terminal directed Met-enkephalin antibody. The characteristics of these antibodies have been described previously [Lewis. R. V., et al. Biochem. Biophys. Res. Commun. 89, 822 (1979)] .
(§2) In order to determine whether fractions 6,7, and 16 were indeed separate entities differing chromatographically from the enkephalins, these fractions were lyophilized, redissolved and rechromatographed. Each opioid peptide eluted at its original position. […]

[3] = tested on: rats; conditions: intracerebraventricular or intravenous administration to rats; cited from earlier work
[4] = tested on: C-terminal directed Leu-enkephalin antibody; test: Radioimmunoassay, C-terminal directed antibody; assay type: binding; conditions: fractions from RP-18; 1.3 g wet weight of chromaffin granules isolated from 30 g of adrenal medulla
Method: as §1, §2

[5] = tested on: mice; conditions: intracerebraventricular or intravenous administration to mice; cited from earlier work

| Substance | Response ([1]; Dose 4.5nm, Volume 5nl) | Tail flick response, Post Injection Time 20 ([1]; Dose 4.5nm, Volume 5nl) | Radioimmunoassay N-Terminal [2] [nmoles/fraction] | analgesia [3] | Radioimmunoassay C-Terminal [4] [nmoles/fraction] | analgesia [5] | Response ([1]; Dose 120 nm, Volume 10nl.) | Tail flick response, Post Injection Time 10 ([1]; Dose 120 nm, Volume 10nl.) | Tail flick response, Post Injection Time 2 min. ([1]; Dose 120 nm, Volume 10nl.) |
| --- | --- | --- | --- | --- | --- | --- | --- | --- | --- |
| Beta-endorphin (YGGFMTSEKSQTPLVTLFKNAIIKNAYKKGE; Beta-endorphin; UniProt P01189 237-267, looked up) | Pos. and Neg. | 8 | – | – | – | – | – | – | – |
| Leu-enkephalin [Leu-enk (std)] | – | – | 0.4 | weak and short lined anagesia | 1.0 | weak and short lined anagesia | – | – | – |
| methionine enkephalin [Met Enk] | – | – | 1.0 | weak and short lined anagesia | 0.03 | weak and short lined anagesia | Neg. | 6.3 and 5.9 and 5.0 | 4.0 and 4.7 |
